Our source for the IC50 and half-life values is ChEMBL document CHEMBL1140347, “Peptidyl vinyl ester derivatives: new class of selective inhibitors of proteasome trypsin-like activity” (J Med Chem, 2005).

In data set [1] the test system is Proteasome. In words: Inhibition of chymotrypsin like activity of the proteasome purified from lymphoblastoid cell lines (in vitro). The class given is subcellular.
The subject of data set [2] is Proteasome. The data set is described as follows: Inhibition of trypsin like activity of the proteasome purified from lymphoblastoid cell lines (in vitro). The class given is subcellular.
Data set [3] in a line: Half-life in human plasma by incubation at […]. It is filed as ADME, cell-free.
The test system of data set [4] is Proteasome. The data set is described as follows: Inhibition of post-acidic-like (PGPH) activity of the proteasome purified from lymphoblastoid cell lines (in vitro).
Data set [5] can be described thus: Half-life in culture medium (RPMI) in the presence of 10% foetal calf serum by incubation at […]. It is filed as ADME. As to conditions: cattle, culture medium (RPMI) with 10% foetal calf serum.
The subject of data set [6] is Proteasome. The data set is described as follows: Inhibition of trypsin like activity of the proteasome in colon carcinoma cell lines HCT116. The class given is subcellular.
For data set [7], the system named is Proteasome. The data set is described as follows: Inhibition of trypsin like activity of the proteasome in colon carcinoma cell lines COO115. It is filed as subcellular.

As for `CCOC(=O)/C=C/[C@H](CC(C)C)NC(=O)[C@H](CO)NC(=O)[C@@H](NC(=O)C1=CCCN(C(=O)OC(C)(C)C)C1)C(C)C`, the figures for the 50% inhibitory concentration (IC50) in the data set on Proteasome [1], in the data set on Proteasome [2] and with Proteasome [4] were more than 10 µM, 0.11 µM and more than 10 µM, respectively. Also, the half-life (as a rule, the time in which the quantity being followed falls by half) was 2.57 h in data set [3] and more than 6 h in data set [5].

With `CCOC(=O)/C=C/[C@H](CC(C)C)NC(=O)[C@H](CO)NC(=O)[C@@H](NC(=O)C1=CCCNC1)C(C)C`, the results for the IC50 with Proteasome [1], in the data set with Proteasome [2] and in the data set with Proteasome [4] were 6.54 µM, 0.38 µM and more than 10 µM, respectively. Moreover, the half-life in data set [3] and in data set [5] was more than 6 h each time.

On to `CCOC(=O)/C=C/[C@H](CC(C)C)NC(=O)[C@H](CO)NC(=O)[C@@H](NC(=O)OCc1ccccc1)C(C)C`, for which the IC50 (in general, the concentration that inhibits the measured activity by half) in the data set with Proteasome [1] was more than 10 µM; in the data set with Proteasome [2], 0.071 µM; in the data set with Proteasome [4], more than 10 µM. Also, the half-life in data set [3] is 3.97 h; in data set [5], more than 6 h.

Turning to `CCOC(=O)/C=C/[C@H](CC(C)C)NC(=O)[C@H](CO)NC(=O)[C@@H](NC(=O)c1cccc(O)c1C)C(C)C`, the half-maximal inhibitory concentration (IC50) in the data set on Proteasome [1] was more than 10 µM; in the data set on Proteasome [2], 0.033 µM; in the data set with Proteasome [4], more than 10 µM; in the data set on Proteasome [6] it was 0.033 µM. The half-life in data set [3] and in data set [5] was more than 6 h throughout.

Take `CCOC(=O)/C=C/[C@H](CC(C)C)NC(=O)[C@H](CC(C)C)NC(=O)[C@H](CC(C)C)NC(=O)C1=CCCN(C(=O)OC(C)(C)C)C1`: the IC50 in the data set with Proteasome [1] was 4.36 µM; in the data set on Proteasome [2], 0.19 µM; in the data set on Proteasome [4] it was more than 10 µM. Moreover, the half-life in data set [3] was 3.3 h; in data set [5], more than 6 h.

Consider `CCOC(=O)/C=C/[C@H](CC(C)C)NC(=O)[C@H](CC(C)C)NC(=O)[C@H](CC(C)C)NC(=O)c1cccc(O)c1C`, for which the concentration for half-maximal inhibition (IC50) was 4.21 µM in the data set on Proteasome [1], 0.041 µM with Proteasome [7], 0.041 µM in the data set with Proteasome [2] and more than 10 µM with Proteasome [4]. Moreover, the half-life in data set [3] and in data set [5] was more than 6 h each time.

As for `CCOC(=O)/C=C/[C@H](CC(C)C)NC(=O)[C@H](CC(C)C)NC(=O)[C@H](CC(C)C)NC(=O)OCc1ccccc1`, the figures for the IC50 in the data set on Proteasome [1], in the data set with Proteasome [2] and in the data set with Proteasome [4] were 2.45 µM, 0.28 µM and more than 10 µM, respectively. For the same molecule, the half-life in data set [3] was 4.87 h; in data set [5], more than 6 h.

In the case of `CCOC(=O)/C=C/[C@H](CC(C)C)NC(=O)[C@H](CC(C)C)NC(=O)[C@H](CC(C)C)NC(=O)C1=CCCNC1`, the results for the 50% inhibitory concentration (IC50) in the data set on Proteasome [1], in the data set with Proteasome [2] and in the data set on Proteasome [4] were 0.86 µM, 0.21 µM and more than 10 µM, respectively. For the same molecule, the half-life in data set [3] and in data set [5] was more than 6 h throughout.
